Data on four compounds can be found in patent publication US7115572B2, “Indolicidin analogs with anti-microbial activity” (Council of Scientific and Industrial Research, priority 2001, dated 2006).

Assay type in all cases: cell-based
Series [1] deals with Escherichia coli (W160.37). The method, then:
(§1) In still another embodiment of the present invention, the antimicrobial activities of the peptides are determined in liquid medium by a modified method described by Lehrer et al. (10) In still another embodiment of the present invention, all incubations are carried out at 37° C. Microbial growth is determined by measuring the increase in OD600. The lowest concentration of the peptide that result in complete inhibition of growth is recorded as its minimal inhibitory concentration (MIC). In still another embodiment of the present invention, the microorganisms used are Escherichia coli ([…]) and Staphylococcus aureus. A peptide concentration in stock solution is determined by amino acid analysis.

The test system of a further series is Staphylococcus aureus. On the procedure:
as §1

Another series relates to rat erythrocytes. Description: Hemolytic activity on freshly isolated rat erythrocytes. On the procedure:
In still another embodiment of the present invention, hemolytic activity of the peptides is assessed on freshly isolated rat erythrocytes.
In still another embodiment of the present invention, heparinized rat blood in saline is initially centrifuged at 1000 rpm for 10 min to remove the buffy coat.
In still another embodiment of the present invention, the erythrocyte suspension is further washed thrice with 5 mM Hepes, pH 7.4 containing 150 mM NaCl.
In still another embodiment of the present invention, aliquots of cell suspension (˜10^6 cells) in eppendorf tubes are incubated with the peptide in duplicates at 37° C. for 30 min with gentle mixing.
In still another embodiment of the present invention, the tubes are then centrifuged and the absorbance of the supernatants is measured at 540 nm. The lysis obtained with 1% triton×100 is taken as 100%.

The mark [2] stands for this setting: lowest concentration giving complete inhibition of growth, 37° C., OD600.

Like-named read-outs stand apart in the source and are kept apart here. Marks after values point to notes of the source that are not given here. No end group written: not given here.

`CC[C@H](C)[C@H](N)C(=O)N[C@@H](CC(C)C)C(=O)N1CCC[C@H]1C(=O)N[C@@H](Cc1c[nH]c2ccccc12)C(=O)N[C@@H](CCCCN)C(=O)N[C@@H](Cc1c[nH]c2ccccc12)C(=O)N1CCC[C@H]1C(=O)N[C@@H](Cc1c[nH]c2ccccc12)C(=O)N[C@@H](Cc1c[nH]c2ccccc12)C(=O)N1CCC[C@H]1C(=O)N[C@@H](Cc1c[nH]c2ccccc12)C(=O)N[C@@H](CCCNC(=N)N)C(=O)N[C@@H](CCCNC(=N)N)C(N)=O` [IL, ILPWKWPWWPWRR-amide, reference compound]: the “E.CO// (MIC μg/ml)” value in series [1] (setting [2]) is 5 µg/mL. Moreover, the “S.aureus (MIC μg/ml)” value with Staphylococcus aureus (setting [2]) was determined as 2 µg/mL. In the series with rat erythrocytes (100 μg/ml peptide, rat erythrocytes, 37° C., 30 min, 1% triton x100 = 100%), the “% Hemolytic activity at 100 μg/ml” value is listed as 100^a %.

For “ILPLKLPLLPWRR-NH2 [IL11, ILPLKLPLLPWRR-amide]”, the “E.CO// (MIC μg/ml)” value in series [1] (W160.37) worked out at 20 µg/mL. In the series with Staphylococcus aureus, the “S.aureus (MIC μg/ml)” value was 5 µg/mL. For the same compound, the “% Hemolytic activity at 100 μg/ml” value in the series with rat erythrocytes (red cells of rat, 100) was found to be 0%.

With “ILPLKLPWLPLRR-NH2 [IL8, ILPLKLPWLPLRR-amide]”, the “E.CO// (MIC μg/ml)” value in series [1] (W160.37) came to 20 µg/mL. In the series on Staphylococcus aureus, the “S.aureus (MIC μg/ml)” value was 10 µg/mL. The “% Hemolytic activity at 100 μg/ml” value in the series with rat erythrocytes (red cells of rat, 100) is 0%.

As for “ILPWKLPLLPLRR-NH2 [IL4, ILPWKLPLLPLRR-amide]”, the “E.CO// (MIC μg/ml)” value in series [1] (W160.37) turned out to be 15 µg/mL. In the series with Staphylococcus aureus, the “S.aureus (MIC μg/ml)” value is 10 µg/mL. Also, in the series on rat erythrocytes (red cells of rat, 100), the “% Hemolytic activity at 100 μg/ml” value was found to be 0%.
